Reference: patent US11952368B2, “FAPI dimer compound, FAPI dimer-based positron emission tomography (PET) imaging agent for tumor diagnosis, and preparation method and use thereof” (XIAMEN UNIVERSITY, priority 2021, dated 2024)

What was measured:
[1] = Stability test: incubation in PBS or FBS, radiochemical purity by HPLC; type: in vitro ADME; conditions: 37° C., 1 h, 2 h, and 4 h
Experimental: (§1) 20 μL of a solution of the ^68Ga-2PEG(3)-FAPI-dimer (3.7 MBq activity/20 μL) prepared in Example 1 (with normal saline (NS) as a solvent) was taken and added to a centrifuge tube with 100 μL of FBS, and incubated at 37° C. for 1 h, 2 h, and 4 h to obtain an FBS co-incubation solution; 20 μL of the FBS co-incubation solution was taken, 40 μL of acetonitrile was added for protein precipitation, and a resulting mixture was filtered through a 0.22 μm needle filter membrane; and a radiochemical purity was analyzed through HPLC.
as §1, with “NS” for “normal saline (NS)”, “PBS (pH=7.4),” for “FBS,”, “a PBS” for “an FBS”, “PBS” for “FBS”, “taken” for “taken, 40 μL of acetonitrile was added for protein precipitation,”, “and” for “and a resulting mixture was”

FAP-expressing CAFs = assay: Cellular uptake and cellular uptake blockade in CAFs; type: cell-based, human
Experimental: A human HCC cell line Huh7 was purchased from the National Experimental Cell Resource Sharing Platform, China. CAFs were extracted from a surgical specimen of an HCC patient.
After the CAFs were verified as cells with high FAP expression, the next experiment was conducted. […]
FAP-expressing CAFs were inoculated in a 24-well plate and cultivated with a 10% (volume fraction) FBS-containing 1640 medium for 48 h before the experiment until a cell density was about 80% to 90%; the medium was changed to an FBS-free 1640 medium; and the ^68Ga-2PEG(3)-FAPI-dimer, ^68Ga-FAPI-46, or ^68Ga-2PEG(3)-FAPI-dimer+11.3 nmol FAPI-46 (for the blocking experiment) was added to the 24-well plate and incubated, with predetermined intervals of 10 min, 30 min, 60 min, 90 min, and 120 min. […] A half-inhibitory concentration (IC50s) was calculated by using GraphPad Prism to fit data through nonlinear regression. […]

FAP on CAFs = molecular target: T1, FAP on CAFs (Homo sapiens, UniProt Q12884); assay: FAP binding assay (radioligand competition) on CAFs; conditions: radiolabeled compound co-incubated 60 min with corresponding unlabeled FAPI derivative
T1 construct: FAP-expressing CAFs were inoculated in a 24-well plate; endogenous in cells; host or cells: cancer-associated fibroblasts (CAFs)
T1 sequence (Q12884 1-760): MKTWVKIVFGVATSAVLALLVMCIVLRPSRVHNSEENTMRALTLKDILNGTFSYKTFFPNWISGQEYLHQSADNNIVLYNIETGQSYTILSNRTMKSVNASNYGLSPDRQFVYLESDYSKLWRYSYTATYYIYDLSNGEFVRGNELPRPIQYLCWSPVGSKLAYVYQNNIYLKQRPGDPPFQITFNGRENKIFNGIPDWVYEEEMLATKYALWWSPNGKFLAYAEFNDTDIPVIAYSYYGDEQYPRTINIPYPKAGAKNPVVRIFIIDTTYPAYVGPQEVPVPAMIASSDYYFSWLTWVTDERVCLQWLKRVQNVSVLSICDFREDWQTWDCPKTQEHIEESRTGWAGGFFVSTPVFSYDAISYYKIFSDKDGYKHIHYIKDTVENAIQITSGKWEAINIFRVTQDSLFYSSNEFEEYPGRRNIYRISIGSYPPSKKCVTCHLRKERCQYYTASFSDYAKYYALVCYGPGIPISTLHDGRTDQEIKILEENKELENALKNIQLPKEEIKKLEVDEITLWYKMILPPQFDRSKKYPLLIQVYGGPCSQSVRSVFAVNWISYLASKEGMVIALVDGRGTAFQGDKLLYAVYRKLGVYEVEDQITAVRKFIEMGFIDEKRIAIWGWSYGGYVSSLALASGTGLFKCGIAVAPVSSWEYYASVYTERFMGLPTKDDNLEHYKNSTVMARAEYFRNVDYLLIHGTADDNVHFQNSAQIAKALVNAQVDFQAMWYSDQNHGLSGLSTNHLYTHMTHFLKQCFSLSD
Experimental: FAP-expressing CAFs were inoculated in a 24-well plate and cultivated with a 10% (volume fraction) FBS-containing 1640 medium for 48 h before the experiment until a cell density was about 80% to 90%; the medium was changed to an FBS-free 1640 medium; and the ^68Ga-2PEG(3)-FAPI-dimer, ^68Ga-FAPI-46, or ^68Ga-2PEG(3)-FAPI-dimer+11.3 nmol FAPI-46 (for the blocking experiment) was added to the 24-well plate and incubated, with predetermined intervals of 10 min, 30 min, 60 min, 90 min, and 120 min. The FAP binding assay was conducted after a radiolabeled compound and a corresponding unlabeled FAPI derivative (1.27×10^−4-10^−13 mol/L of 2PEG(3)-FAPI-dimer was added to ^68Ga-2PEG(3)-FAPI-dimer; and 2.83×10^−4-1×10^−13 mol/L of FAPI-46 was added to ^68Ga-FAPI-46) were co-incubated for 60 min. A half-inhibitory concentration (IC50s) was calculated by using GraphPad Prism to fit data through nonlinear regression. In each step of the experiment, cells were washed twice with 1 mL of PBS. Finally, CAFs were lysed with 0.5 mL of a 1 mol/L NaOH aqueous solution to conduct radioactive counting with a gamma counter. 3 parallel replicates were set for each experiment.

## CN(CCCN1CCN(C(=O)COCCOCCOCCNC(=O)CCC(=O)N[C@@H](CCCCNC(=O)CN2CCN(CC(=O)[O-])CCN(CC(=O)[O-])CCN(CC(=O)[O-])CC2)C(=O)NCCOCCOCCOCC(=O)N2CCN(CCCN(C)c3ccc4nccc(C(=O)NCC(=O)N5CC(F)(F)C[C@H]5C#N)c4c3)CC2)CC1)c1ccc2nccc(C(=O)NCC(=O)N3CC(F)(F)C[C@H]3C#N)c2c1.[68Ga+3] [^68Ga-2PEG(3)-FAPI-dimer]
[1]; FBS
  radiochemical purity after incubation in FBS: greater than 90%
[1]; PBS (pH=7.4)
  radiochemical purity after incubation in PBS: greater than 90%
FAP-expressing CAFs; +11.3 nmol FAPI-46
  cell uptake blockade: binding to FAP blocked by FAPI-46 precursor: can significantly block
FAP-expressing CAFs; incubation 10 min to 120 min
  absorption value relative to ^68Ga-FAPI-46 monomer in CAFs: about twice
FAP on CAFs
  IC50: 3.57 nM
